A short description of the series: solubility in water of the potassium salt of Diacerein. Type of series: physicochemical. The conditions noted are these: in water at neutral pH (pH=7). As for the experimental part: Type A Process: The first step of the process (a.) is to salify the raw Diacerein to obtain a salt of Diacerein which is soluble in water. The water soluble salt of Diacerein is preferably an inorganic salt of Diacerein, more preferably a salt of Diacerein with an alkali metal. In a preferred embodiment, the salt of Diacerein is a potassium salt of Diacerein or a sodium salt of Diacerein. The solubility of potassium salt of Diacerein is around 1 g/50 ml of water at neutral pH (pH=7).

Here are results for one molecule from patent US8598232B2, “Process for the preparation of non-genotoxic diacetylrhein (diacerein) and formulations comprising non-genotoxic diacetylrhein” (Evultis SA, priority 2008, dated 2013).

Molecules are shown by their SMILES. Where a name gives a salt, the structure may show the parent alone.

Consider `CC(=O)Oc1cccc2c1C(=O)c1c(OC(C)=O)cc(C(=O)O)cc1C2=O` [potassium salt of Diacerein, 1,8-diacetoxy-3-carboxyanthraquinone], for which the solubility entry is “around 1 g/50 ml”.
